Patent publication US20140011889A1, “Resveratrol-Containing Compositions and Methods of Use for Cardiac-Related Diseases” (Resveratrol Partners, LLC, priority 2010, published 2014)

What was measured:
breast cancer cells = conditions: cited from earlier work
cancer risk = conditions: 1100 IU, 4-year period, women in Nebraska; cited from earlier work
SIRT1 = biological target: T1, SIRT1 (Homo sapiens, UniProt Q96EB6); test: SIRT1 Fluorescent Activity Assay/Drug Discovery Kit AK-555; type: biochemical; conditions: capsules stored under ambient conditions
T1 sequence (Q96EB6 1-747): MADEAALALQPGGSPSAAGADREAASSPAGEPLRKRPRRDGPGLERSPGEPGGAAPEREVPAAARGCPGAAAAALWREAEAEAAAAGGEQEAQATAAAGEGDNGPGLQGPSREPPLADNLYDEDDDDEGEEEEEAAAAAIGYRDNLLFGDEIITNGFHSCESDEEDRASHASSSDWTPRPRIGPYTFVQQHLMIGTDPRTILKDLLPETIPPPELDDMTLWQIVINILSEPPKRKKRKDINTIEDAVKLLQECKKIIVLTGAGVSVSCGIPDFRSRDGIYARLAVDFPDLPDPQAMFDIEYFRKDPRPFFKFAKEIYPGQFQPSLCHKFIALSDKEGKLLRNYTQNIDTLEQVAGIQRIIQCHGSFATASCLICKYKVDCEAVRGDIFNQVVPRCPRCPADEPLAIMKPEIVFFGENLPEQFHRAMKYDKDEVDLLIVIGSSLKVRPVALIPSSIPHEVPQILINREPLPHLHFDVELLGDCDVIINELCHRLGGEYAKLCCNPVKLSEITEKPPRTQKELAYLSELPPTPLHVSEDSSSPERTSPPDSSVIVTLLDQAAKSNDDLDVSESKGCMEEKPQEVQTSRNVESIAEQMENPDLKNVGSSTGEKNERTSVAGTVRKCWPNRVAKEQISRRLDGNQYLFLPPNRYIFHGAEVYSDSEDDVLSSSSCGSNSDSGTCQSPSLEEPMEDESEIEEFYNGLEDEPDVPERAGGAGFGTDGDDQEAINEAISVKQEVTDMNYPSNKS

reactive oxygen species = test: Intracellular ROS by CM-H2DCFDA fluorescence in I/R heart; type: in vivo, rat; conditions: IR heart, FIG. 19
Experimental: The dye was injected intravenously, prior to induction of ischemia/reperfusion, and at the end of the experiments, the level of fluorescence was determined for the generation of ROS by measuring the fluorescent oxidation product CM-DCF in the cytosol, at an excitation wavelength of 480 nm and an emission wavelength of 520 nm.

miR-20b = miR-20b quantification in I/R heart, Taqman real-time PCR; type: in vivo, rat; conditions: I/R alone: down regulation […]; FIG. 17C
Text: Animals. […] Male Sprague-Dawley rats weighing between 250 and 300 g were fed ad libitum regular rat chow with free access to water until the start of the experimental procedure.

rhabdomyosarcoma cells = conditions: low dosage; cited from earlier work
injected tumors = conditions: mice with injected tumors; cited from earlier work

## C=C1CC[C@H](O)C/C1=C/C=C1\CCC[C@]2(C)[C@@H]([C@H](C)CCCC(C)C)CC[C@@H]12 [vitamin D3, cholecalciferol]
Breast cancer cells; higher concentrations of vitamin D3
  decline of number of breast cancer cells: about 25%
Breast cancer cells; low-dose vitamin D3
  decline of breast tumor cell numbers: does not reduce
Cancer risk
  reduction in cancer risk: 60-77%

## O=c1c(O)c(-c2ccc(O)c(O)c2)oc2cc(O)cc(O)c12 [quercetin]
SIRT1
  biological activity of encapsulated quercetin (ability to stimulate SIRT1 activity): maintained biological activity

## CC(C)=CCC/C(C)=C/CC/C(C)=C/CC[C@]1(C)CCc2cc(O)c(C)c(C)c2O1 [γ-tocotrienol]
Reactive oxygen species
  intracellular ROS concentration compared to control: lowered
miR-20b
  miR-20b expression in pretreated I/R hearts: 9.4 fold

## O=P(O)(O)O[C@H]1[C@H](OP(=O)(O)O)[C@@H](OP(=O)(O)O)[C@H](OP(=O)(O)O)[C@@H](OP(=O)(O)O)[C@H]1OP(=O)(O)O [IP6, (2,3,4,5,6-pentaphosphonooxycyclohexyl)dihydrogen phosphate]
Rhabdomyosarcoma cells
  suppression of growth of rhabdomyosarcoma cells: 50%
Injected tumors
  tumor size, times smaller than non-treated mice: 50 times
